Patent US9464064B2, “HCV helicase inhibitors and methods of use thereof” (University of Kansas, priority 2011, dated 2016)
Like-named read-outs stand apart in the source and are kept apart here.

Assays:
[1] = target: T1, E. coli SSB-Cy5-dT15 complex (Escherichia coli, UniProt P0AGE0); experiment: Escherichia coli SSB Cy5-dT15 binding assay (fluorescence polarization); settings: for inhibition at 100 µM: read-out: SSB % Displaced @ 100 μM; for EC50: read-out: SSB EC50; for IC50: disruption of Cy5-dT15-SSB complex, read-out: Cy5-dT15-SSB Binding IC50
T1 construct: purchased Promega
Description: The Escherichia coli SSB assay was performed in a total volume of 20.2 μl in 384-well, flat-bottom, low volume, black microplates (Greiner Bio-One). First, 20 μl of a assay solution (5 nM Cy5-[…]-3′ (Cy5-dT15, SEQ ID NO:5), 20 nM E. coli SSB (Promega), 25 mM MOPS, pH 7.5, 1.25 mM MgCl2, 0.0025 mg/ml BSA, 0.005% (v/v) TWEEN 20 and 0.025 mM DTT) was dispensed in each well, then 0.2 μl of dimethylsulfoxide (DMSO) or compound dissolved in DMSO was added by pin transfer, such that the final concentration of DMSO was 1% (v/v) in each assay.
For IC50 determination, assays were performed with 60 μl total volume in black flat bottomed 384-well microplates (Corning). First, 3.0 μl of DMSO or compound dissolved in DMSO was added, such that the final concentration of DMSO was 5% (v/v) in each assay. Then 57 μl of a assay solution (5 nM Cy5-dT15, 20 nM SSB, 25 mM MOPS, pH 7.5, 1.25 mM MgCl2, 0.0025 mg/ml BSA, 0.005% (v/v) TWEEN 20 and 0.025 mM DTT) was dispensed in each well. Polarization was monitored with a TECAN Infinite M1000 PRO multi-mode microplate reader by exciting at 635 nm (5 nm bandwidth) and measuring total fluorescence intensity, parallel and perpendicular polarized light at 667 nm (20 nm bandwidth).

Huh-7.5 cells = experiment: Cell viability assay ([…]-GLO); type: cell-based, human; settings: for Cell viability (% viable): 10 μM compound, triplicate, average ± SD
Description: To assess compound toxicity toward Huh-7.5 cells, cells were plated and treated as above and cell viability was assessed using the […]-GLO luminescent cell viability kit (PROMEGA) following the manufacturer's instructions. Briefly, at the end of a 72 hour incubation period, the medium was aspirated and the cells were washed with 1×PBS, then an equal volume of growth medium and […]-GLO reagent was added and the lysis was initiated by mixing on an orbital shaker. The plate was incubated at 23° C. for 30 minutes and the luciferase activity was measured for 1 second using the FLUOSTAR Omega microplate reader (BMG Labtech).

[2] = tested on: HCV RLuc subgenomic replicon (genotype 1b) in Huh-7.5 cells; experiment: HCV subgenomic replicon assay (Renilla luciferase); type: cell-based, hepatitis C virus; settings: Hepatitis C virus
Text: An HCV Renilla luciferase reporter construct (HCV RLuc; Huang, et al. (2006) Hepatology 43:81-90) was used to measure the effect of each compound on cellular HCV RNA levels. In HCV RLuc, the HCV internal ribosome entry site (IRES) drives the translation of the neomycin and Renilla luciferase genes while the HCV nonstructural proteins (NS3 to NS5B) are translated from the Encephalomyocarditis virus IRES (Huang, et al. (2006) supra). The plasmid DNA was cleaved with ScaI, purified by phenol/chloroform extraction followed by ethanol precipitation, and used as template for RNA transcription using […] T7 RNA transcription kit (Ambion, Austin, Tex.). The RNA transcripts were treated with 2 U DNase I (Ambion) at 37° C. for 30 minutes, purified by acid phenol/chloroform extraction, followed by isopropanol precipitation, and suspended in diethylpyrocarbonate-treated water. RNA concentration was determined by spectrophotometry by measuring the A260. RNA integrity and size was checked on 1% agarose gel. Transcribed RNA was stored in aliquots at −80° C. until needed.
Huh-7.5 cells were transfected with HCV RNA by electroporation. Briefly, subconfluent Huh7.5 cells were trypsinized, suspended in complete growth medium, and centrifuged at 1,000×g for 5 minutes at 4° C. The cell pellets were then washed twice with ice-cold phosphate-buffered saline (PBS) and suspended at 1.75×10^7 cells/mL in ice-cold PBS. Replicon RNA (5 μg) was mixed with 0.4 mL of cell suspension and transferred to 2 mm gap width electroporation cuvette (EPPENDORF AG, Germany) and pulsed 5 times for 99 μsec at 820 V over 1.1 sec intervals using the ECM 830 electroporator instrument (BTX Harvard Apparatus, Holliston, Mass.). After a 5 minute recovery period at room temperature, cells were transferred to 10 ml complete growth medium, and seeded into 10 cm diameter cell culture dishes. Twenty-four hours after transfection, the medium was replaced with fresh complete DMEM supplemented with 1 mg/ml geneticin (Invitrogen) and the medium was replaced every three to four days with fresh medium containing 1 mg/mL geneticin. Geneticin-resistant colonies were selected for a period of two weeks and expanded in the presence of 250 μg/mL geneticin.
HCV RLuc replicon cells were seeded at a density of 10×10^3 cells per well in 96-well plates and incubated for 4-5 hours to allow the cells to attach to the plate. The compounds dissolved in dimethyl sulfoxide (DMSO) were added at a final concentration of 10 μM (DMSO solvent final concentration was 0.5%) and the cells were incubated for 72 hours at 37° C. under 5% CO2 atmosphere. The effects of compounds on HCV replication were then assessed by measuring the Renilla luciferase activity in compound-treated versus DMSO-treated cells. At the end of the incubation period, the medium was aspirated and the cells were washed with 1×PBS. The Renilla luciferase reporter gene assay was performed using the Renilla luciferase assay kit (PROMEGA, Madison, Wis.) according to the manufacturer's instructions. Briefly, the cells were lysed by addition of 50 μL of 1× Renilla luciferase lysis buffer followed by two cycles of freeze/thaw. The luciferase activity content of the lysate was measured with a FLUOSTAR Omega microplate reader instrument (BMG Labtech, Germany) after injecting 50 μL of luciferase substrate and reading for 5 seconds.
To determine if the above identified compounds might be useful as HCV antiviral agents, they were added to cells harboring HCV subgenomic RNA replicon. The HCV replicon chosen was derived from the same HCV strain (genotype 1b) as the NS3 protein used for screening and enzyme assays. […] 75:4614-4624; Blight, et al. (2002) J. Virol. 76:13001-13014). […]

MBHA DNA substrate = experiment: Modified FID assay, SYBR Green I; type: binding; settings: for DNA binding (%): SYBR Green I-FID, average (±SD) percent bound at 100 μM; for FID (SG) % Displaced @ 100 μM / EC50: SYBR Green; for EC50: read-out: FID (SG) EC50 (converted)
Description: A modified FID assay, in which ethidium bromide was replaced with SYBR Green I (Invitrogen), was used to estimate a compounds affinity for the MBHA substrate. Reactions were performed as described above except that the DNA substrate was present at 0.32 μM, ethidium bromide was absent, and SYBER Green was present at (0.68 μM). Data were normalized as described above and fit to concentration-response equation using GraphPad Prism software. Titrations with each compound were performed in triplicate, and EC50 values from three independent titrations are reported ±standard deviations.

[3] = Huh7.5, 10 μM compound, triplicate, average ± SD, read-out: HCV replication (% Inh.)
[4] = Huh7.5, 10 μM, read-out: Replicon (% Inhibition @ 10 μM)

T1 sequence (P0AGE0 2-178, one chain of several): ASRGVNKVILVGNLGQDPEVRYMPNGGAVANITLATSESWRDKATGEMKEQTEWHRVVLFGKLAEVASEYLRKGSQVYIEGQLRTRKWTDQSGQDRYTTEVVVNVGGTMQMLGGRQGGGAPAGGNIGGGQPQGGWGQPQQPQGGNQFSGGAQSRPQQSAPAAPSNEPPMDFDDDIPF

## Cc1ccc2nc(-c3ccc4nc(-c5ccc(NC(=O)c6cccc(C(F)(F)F)c6)cc5)sc4c3)sc2c1S(=O)(=O)O [Compound 20, 6-methyl-2′-(4-(3-(trifluoromethyl)benzamido)phenyl)-[2,6′-bibenzo[d]thiazole]-7-sulfonic acid]
[1]
  inhibition at 100 µM: 23%
  EC50: > 100 µM
Huh-7.5 cells
  Cell Viability (% @ 10 μM): 121 ± 3%
  Cell viability (% viable): 121 ± 3%
[2]; [3]
  inhibition at 10 µM: 41 ± 8%
[2]; [4]
  inhibition at 10 µM: 41 ± 8%
MBHA DNA substrate
  DNA binding (%): 46 ± 10%
  FID (SG) % Displaced @ 100 μM: 46 ± 10%
  EC50: > 100 µM

## Cc1ccc2nc(-c3ccc4nc(-c5ccc(NC(=O)c6cc(F)cc(C(F)(F)F)c6)cc5)sc4c3)sc2c1S(=O)(=O)O [Compound 27, 2′-(4-(3-fluoro-5-(trifluoromethyl)benzamido)phenyl)-6-methyl-[2,6′-bibenzo[d]thiazole]-7-sulfonic acid]
[1]
  inhibition at 100 µM: 23%
  EC50: > 100 µM
Huh-7.5 cells
  Cell Viability (% @ 10 μM): 113 ± 1%
  Cell viability (% viable): 113 ± 1%
[2]; [3]
  inhibition at 10 µM: 51 ± 9%
[2]; [4]
  inhibition at 10 µM: 51 ± 9%
MBHA DNA substrate
  DNA binding (%): 48 ± 17%
  FID (SG) % Displaced @ 100 μM: 48 ± 17%
  EC50: > 100 µM

## COC(=O)c1ccc(C(=O)Nc2ccc(-c3nc4ccc(-c5nc6ccc(C)c(S(=O)(=O)O)c6s5)cc4s3)cc2)cc1 [Compound 9, 2′-(4-(4-(methoxycarbonyl)benzamido)phenyl)-6-methyl-[2,6′-bibenzo[d]thiazole]-7-sulfonic acid]
[1]
  IC50: 1 µM
  inhibition at 100 µM: 91%
  EC50: 2 ± 0.5 µM
Huh-7.5 cells
  Cell Viability (% @ 10 μM): 101 ± 8%
  Cell viability (% viable): 101 ± 8%
[2]; [3]
  inhibition at 10 µM: 40 ± 1%
[2]; [4]
  inhibition at 10 µM: 40 ± 1%
MBHA DNA substrate
  DNA binding (%): 28 ± 10%
  FID (SG) % Displaced @ 100 μM: 28 ± 10%
  EC50: > 100 µM

## Cc1ccc2nc(-c3ccc4nc(-c5ccc(NC(=O)c6ccc(C(F)(F)F)cc6)cc5)sc4c3)sc2c1S(=O)(=O)O [Compound 12, 6-methyl-2′-(4-(4-(trifluoromethyl)benzamido)phenyl)-[2,6′-bibenzo[d]thiazole]-7-sulfonic acid]
[1]
  IC50: 3 µM
  inhibition at 100 µM: 80%
  EC50: 4 ± 2 µM
Huh-7.5 cells
  Cell Viability (% @ 10 μM): 90 ± 4%
  Cell viability (% viable): 90 ± 4%
[2]; [3]
  inhibition at 10 µM: 44 ± 12%
[2]; [4]
  inhibition at 10 µM: 44 ± 12%
MBHA DNA substrate
  DNA binding (%): 69 ± 9%
  FID (SG) % Displaced @ 100 μM: 69 ± 9%
  EC50: 29 ± 9 µM

## Cc1ccc2nc(-c3ccc4nc(-c5ccc(NC(=O)c6ccc(C(C)(C)C)cc6)cc5)sc4c3)sc2c1S(=O)(=O)O [Compound 13, 2′-(4-(4-(tert-butyl)benzamido)phenyl)-6-methyl-[2,6′-bibenzo[d]thiazole]-7-sulfonic acid]
[1]
  IC50: 32 ± 7 µM
  inhibition at 100 µM: 80%
  EC50: 32 ± 7 µM
Huh-7.5 cells
  Cell Viability (% @ 10 μM): 87 ± 4%
  Cell viability (% viable): 87 ± 4%
[2]; [3]
  inhibition at 10 µM: 51 ± 9%
[2]; [4]
  inhibition at 10 µM: 51 ± 9%
MBHA DNA substrate
  DNA binding (%): 72 ± 19%
  FID (SG) % Displaced @ 100 μM: 72 ± 19%
  EC50: 16 ± 6 µM

## Cc1ccc2nc(-c3ccc(NC(=O)c4ccc(NC(=O)OCC5c6ccccc6-c6ccccc65)cc4)cc3)sc2c1S(=O)(=O)O.N [Compound 42]
[1]
  IC50: 27 ± 5 µM
  inhibition at 100 µM: 93%
  EC50: 27 µM
Huh-7.5 cells
  Cell Viability (% @ 10 μM): 108 ± 2%
[2]; [4]
  inhibition at 10 µM: 31 ± 10%
MBHA DNA substrate
  FID (SG) % Displaced @ 100 μM: 44 ± 2%
  EC50: > 100 µM

## Cc1ccc2nc(-c3ccc4nc(-c5ccc(NC(=O)c6c(F)cccc6C(F)(F)F)cc5)sc4c3)sc2c1S(=O)(=O)O [Compound 21, 2′-(4-(2-fluoro-6-(trifluoromethyl)benzamido)phenyl)-6-methyl-[2,6′-bibenzo[d]thiazole]-7-sulfonic acid]
[1]
  IC50: 13 ± 1 µM
  inhibition at 100 µM: 96%
  EC50: 13 ± 1 µM
Huh-7.5 cells
  Cell Viability (% @ 10 μM): 122 ± 2%
  Cell viability (% viable): 122 ± 2%
[2]; [3]
  inhibition at 10 µM: 55 ± 7%
[2]; [4]
  inhibition at 10 µM: 55 ± 7%
MBHA DNA substrate
  DNA binding (%): 66 ± 40%
  FID (SG) % Displaced @ 100 μM: 66 ± 40%
  EC50: 64 ± 34 µM

## Cc1ccc2nc(-c3ccc4nc(-c5ccc(NC(=O)Nc6ccc(Cl)cc6)cc5)sc4c3)sc2c1S(=O)(=O)O [Compound 54]
[1]
  IC50: 5 ± 1 µM
  inhibition at 100 µM: 94%
  EC50: 5 µM
Huh-7.5 cells
  Cell Viability (% @ 10 μM): 98 ± 1%
[2]; [4]
  inhibition at 10 µM: 35 ± 28%
MBHA DNA substrate
  FID (SG) % Displaced @ 100 μM: 74 ± 4%
  EC50: 8 µM

## Cc1ccc2nc(-c3ccc(NC(=O)c4ccc(NC(=O)c5ccc(N)cc5)cc4)cc3)sc2c1S(=O)(=O)O.N [Compound 46]
[1]
  IC50: 17 ± 5 µM
  inhibition at 100 µM: 94%
  EC50: 17 µM
Huh-7.5 cells
  Cell Viability (% @ 10 μM): 112 ± 5%
[2]; [4]
  inhibition at 10 µM: -42 ± 26%
MBHA DNA substrate
  FID (SG) % Displaced @ 100 μM: 21%
  EC50: > 100 µM

## Cc1ccc2nc(-c3ccc4nc(-c5ccc(NC(=O)c6ccc(F)cc6)cc5)sc4c3)sc2c1S(=O)(=O)O.N [Compound 7, 2′-(4-(4-fluorobenzamido)phenyl)-6-methyl-[2, bibenzo[d]thiazole]-7-sulfonic acid]
[1]
  IC50: 14 ± 4 µM
  inhibition at 100 µM: 88%
  EC50: 14 ± 4 µM
Huh-7.5 cells
  Cell Viability (% @ 10 μM): 94 ± 2%
  Cell viability (% viable): 94 ± 2%
[2]; [3]
  inhibition at 10 µM: 50 ± 5%
[2]; [4]
  inhibition at 10 µM: 50 ± 5%
MBHA DNA substrate
  DNA binding (%): 35 ± 15%
  FID (SG) % Displaced @ 100 μM: 35 ± 15%
  EC50: > 100 µM
